Measurements from patent US8937154B2, “Stabilized therapeutic small helical antiviral peptides” (priority 2006, dated 2015).
Where a SMILES comes first, the peptide text is derived from it. Bridges are numbered along the chain shown (N, C = ends). [ ]: non-standard residue; d: D form. The star is where a group is joined. FITC = O=C1OC2(c3ccc(O)cc3Oc3cc(O)ccc32)c2ccc(NC(=S)*)cc21; R8 = C=CCCCCCC[C@@](C)(N)C(=O)O; S5 = C=CCCC[C@](C)(N)C(=O)O; βAla = NCCC(=O)O

Columns and labels:
HIV-1 IIIB [1] = format: cell-based
Protocol: The inhibitory activity of the constrained peptide described in Example 1 on infection by laboratory-adapted HIV-1 strains was determined as described in Jiang et al. (1991).

HIV-IIIB = experiment: Viral re-infection assay: infectivity of virions released by treated HIV-1 infected MT-2 cells; format: cell-based; settings: for infectivity respect to the control: about 7 μM
Protocol: The infectivity potential of the virions released by HIV-1 infected MT-2 cells treated with different concentrations of small stapled peptides. […] Control cells were untreated or treated with 1 ug/ml of AMD3100 (CXCR-4 receptor inhibitor). Following overnight incubation the medium was completely removed and replaced with fresh medium. On the fourth day post-infection the supernatants were collected. One aliquot of each sample was mixed 1:1 with a solution of 5% Triton X-100 for p24 quantification, and stored at 4° C., another aliquot was immediately frozen at −80° C. and used to compare the infectivity of the viral particles released by treated cells to the viral particles released by untreated cells. Following p24 quantification by sandwich-ELISA MT-2 cells were infected with viral samples normalized for the p24 content to calculate the TCID50. Following overnight incubation ¾ of the medium containing the inoculum was replaced with fresh medium. On the fourth day post infection supernatants were collected for p24 quantification and the TCID50 was calculated by the Spearman-Karber statistical method.
Therefore, to infect MT-2 cells we used the maximum quantities of supernatants possible.

[2] = system: HIV-1 gag-mStrawberry fusion protein; experiment: Direct colocalization with gag by confocal microscopy; format: cell-based; settings: 293T cells transfected with pEF6A-gag-mStrawberry; near the plasma membrane
Protocol: A direct colocalization study was performed by transfecting 293T cells with pEF6A-gag-mStrawberry for 4 hr and then washing cells once with PBS. A serum-free or serum-containing medium containing FITC-conjugated peptide was added for another 20 hr culture. After three washes, the cells were examined and imaged under a Zeiss LSM510 laser scanning confocal microscope.

[3] = Circular dichroism, secondary structure in solution; format: physicochemical; settings: 25° C., 1×PBS, 1-20% acetonitrile, 100 μM peptide
Protocol: We used circular dichroism (CD) to characterize the secondary structure of NYAD-1 and CAI in the uncomplexed state in solution. CD spectra were obtained on a Jasco J-715 Spectropolarimeter (Jasco Inc.) at 20° C. using the standard measurement parameters in Tris-HCl buffer (20 mM Tris, pH 8.0) in the presence of 1-15% (v/v) acetonitrile at a final concentration of 125-500 μM. In all the samples, the final concentrations of peptides and salt were always the same, and the spectra were corrected by subtracting the CD spectra of the appropriate reference solvent. Percent α-helix was calculated from molar ellipticity value at 222 nm.
The CD spectra were measured at 25° C. in 1×PBS in the presence of 1-20% (v/v) acetonitrile at a final concentration of peptide of 100 μM.
We used CD spectroscopy to determine the secondary structure characteristics of the stapled peptide NYAD-36. The corresponding linear peptide, NYAD-41, was used as control.

CTDM184A/W185A = CTDM184A/W185A (Human immunodeficiency virus type 1 group M subtype B, UniProt P04591, M317A/W316A); experiment: Isothermal titration calorimetry; set-up: species or system HIV-1; settings: ITC, 25 mM sodium phosphate buffer (pH 7.3), single-binding model
Protocol: In a typical experiment, the ITC injection syringe was loaded with 625 μM CTDM184A/W185A protein dissolved in the dialysis buffer. […] Typically titrations consisted of 27 injections of 10 μl into the calorimetric cell, with 240-s equilibration between injections. The thermodynamic parameters were obtained and data were analysed using MicroCal Origin 7.0 software.

HIV-1 IIIB [4] = experiment: Western blot of p24 and p55 after treatment of HIV-1 IIIB infected MT-2 cells; format: cell-based; settings: anti-p24 mAb, graded concentrations, vs positive untreated control
Protocol: Control cells were uninfected MT-2 or infected and untreated MT-2. Following overnight incubation the culture supernatant was completely removed and replaced with fresh medium. On the fourth day post-infection cells and virus supernatants were harvested. The supernatants were filtered and ultra-centrifuged through a 20% sucrose cushion for 2 hr at 27,000 rpm with a SW28 rotor to concentrate the viral particles. Viral pellets were slowly re-suspended and lysed. Cells were collected and processed for protein extraction. […] Proteins were then visualized by Western Blot and immuno-detected with HIV-1 anti-p24 gag mAb.
Same amounts of viral and cellular proteins were immunodetected with an anti-p24 mAb.

N-terminal CA (N-CA) = N-terminal CA (N-CA) (Human immunodeficiency virus type 1 group M subtype B, UniProt P04591); settings: read-out: affinity (Kd) to N-terminal CA (N-CA); cited from earlier work

Row | Compound | IC50 (HIV-1 IIIB [1]) | p24 and p55 levels in the cellular preparation (HIV-1 IIIB [4]) | p24 and p55 levels in the viral preparation (viral lysates) (HIV-1 IIIB [4]) | also measured
1 | CC[C@H](C)[C@H](N)C(=O)N[C@@H](CO)C(=O)N[C@@H](Cc1ccccc1)C(=O)N[C@]1(C)CCCCCC/C=C\CCC[C@@](C)(C(=O)N[C@@H](CCCNC(=N)N)C(N)=O)NC(=O)[C@H](Cc2ccc(O)cc2)NC(=O)[C@H](Cc2ccc(O)cc2)NC(=O)[C@H](CCC(N)=O)NC(=O)[C@H](CC(C)C)NC(=O)[C@H](Cc2c[nH]c3ccccc23)NC(=O)[C@H](CCC(=O)O)NC1=O [NYAD-33] (H-ISF[R8]EWLQYY[S5]R-NH2; staple (Z) 4-11; N-terminus and C-terminus assumed) | 3.37 ± 0.06 µM | – | – | viral infectivity of particles released by treated cells (HIV-IIIB; 7 μM): very little to no viral infectivity; viral infectivity of particles released by treated cells (HIV-IIIB; 14 μM): very little to no viral infectivity; infectivity respect to the control (HIV-IIIB): 25%
2 | FITC-conjugated NYAD-1: NYAD-1 N-terminally derivatized with β-Ala and FITC ({FITC-βAla}-ITF[S5]DLL[S5]YYGP-NH2; staple 4-8; also: X4, X8 also described as (S)-2-(2'-pentenyl)alanine) | – | – | – | colocalization with gag-mStrawberry [2]: significant fraction colocalized
3 | CC[C@H](C)[C@H](N)C(=O)N[C@H](C(=O)N[C@@H](Cc1ccccc1)C(=O)N[C@@]1(C)CCC/C=C\CCC[C@@](C)(C(=O)N[C@@H](Cc2ccc(O)cc2)C(=O)N[C@@H](Cc2ccc(O)cc2)C(=O)NCC(=O)N[C@@H](CCCNC(=N)N)C(N)=O)NC(=O)[C@H](CC(C)C)NC(=O)[C@H](Cc2c[nH]c3ccccc23)NC(=O)[C@H](CC(=O)O)NC1=O)[C@@H](C)O [NYAD-31] (H-ITF[S5]DWL[S5]YYGR-NH2; staple (Z) 4-8; N-terminus and C-terminus assumed) | 13.5 ± 1.4 µM | – | – | –
4 | CC[C@H](C)[C@H](N)C(=O)N[C@@H](CO)C(=O)N[C@@H](Cc1ccccc1)C(=O)N[C@@]1(C)CCC/C=C\CCC[C@@](C)(C(=O)N[C@@H](Cc2ccc(O)cc2)C(=O)N[C@@H](Cc2ccc(O)cc2)C(=O)NCC(=O)N[C@@H](CCC(=O)O)C(=O)N[C@@H](CCCCN)C(N)=O)NC(=O)[C@H](CC(C)C)NC(=O)[C@H](CC(C)C)NC(=O)[C@H](CCC(=O)O)NC1=O [NYAD-24] (H-ISF[S5]ELL[S5]YYGEK-NH2; staple (Z) 4-8; N-terminus and C-terminus assumed) | 13.8 ± 3.57 µM | – | – | –
5 | c1cc(CN2CCCNCCNCCCNCC2)ccc1CN1CCCNCCNCCCNCC1 [AMD3100, reference compound] | – | – | – | viral infectivity of particles released by treated cells (HIV-IIIB; 1 ug/ml): very little to no viral infectivity
6 | CC[C@H](C)[C@H](N)C(=O)N[C@@H](CO)C(=O)N[C@@H](Cc1ccccc1)C(=O)N[C@]1(C)CCCCCC/C=C\CCC[C@@](C)(C(=O)N[C@@H](CCC(=O)O)C(=O)N[C@@H](CO)C(=O)NCC(=O)N[C@@H](CO)C(N)=O)NC(=O)[C@H](Cc2ccc(O)cc2)NC(=O)[C@H](Cc2ccc(O)cc2)NC(=O)[C@H](CC(=O)O)NC(=O)[C@H](CC(C)C)NC(=O)[C@H](CC(C)C)NC(=O)[C@H](CCC(=O)O)NC1=O [NYAD-36] (H-ISF[R8]ELLDYY[S5]ESGS-NH2; staple (Z) 4-11) | 1.5 ± 0.17 µM | the same decrease was not detected | dose-dependent decrease | secondary structure by CD [3]: α-helical structure; ΔH (CTDM184A/W185A): −8.4 (±0.4) Kcal/mol; solubility: < 100 µM; viral infectivity of particles released by treated cells (HIV-IIIB; 6.8 μM): very little to no viral infectivity; viral infectivity of particles released by treated cells (HIV-IIIB; 13.5 μM): very little to no viral infectivity; infectivity respect to the control (HIV-IIIB): 7.7%
7 | CC[C@H](C)[C@H](N)C(=O)N[C@@H](CO)C(=O)N[C@@H](Cc1ccccc1)C(=O)N[C@@]1(C)CCC/C=C\CCC[C@@](C)(C(=O)N[C@@H](Cc2ccc(O)cc2)C(=O)N[C@@H](Cc2ccc(O)cc2)C(=O)NCC(=O)N[C@@H](CCC(=O)O)C(=O)N[C@@H](CO)C(=O)NCC(=O)N[C@@H](CO)C(N)=O)NC(=O)[C@H](CC(C)C)NC(=O)[C@H](CC(C)C)NC(=O)[C@H](CCC(=O)O)NC1=O [NYAD-35] (H-ISF[S5]ELL[S5]YYGESGS-NH2; staple (Z) 4-8; N-terminus and C-terminus assumed) | 4.51 ± 0.14 µM | – | – | –
8 | CC[C@H](C)[C@H](N)C(=O)N[C@@H](CO)C(=O)N[C@@H](Cc1ccccc1)C(=O)N[C@@]1(C)CCC/C=C\CCC[C@@](C)(C(=O)N[C@@H](Cc2ccc(O)cc2)C(=O)N[C@@H](Cc2ccc(O)cc2)C(=O)NCC(=O)N[C@@H](CCCNC(=N)N)C(=O)N[C@@H](CO)C(=O)NCC(=O)N[C@@H](CO)C(N)=O)NC(=O)[C@H](CC(C)C)NC(=O)[C@H](CC(C)C)NC(=O)[C@H](CCC(=O)O)NC1=O [NYAD-34] (H-ISF[S5]ELL[S5]YYGRSGS-NH2; staple (Z) 4-8; N-terminus and C-terminus assumed) | 12.7 ± 0.9 µM | – | – | –
9 | NYAD-41: SEQ ID NO:20, linear peptide corresponding to NYAD-36, used as control (ISFDELLDYYGESGS; Linear peptide NYAD-41) | – | – | – | secondary structure by CD [3]: random nature
10 | CC[C@H](C)[C@H](N)C(=O)N[C@@H](CO)C(=O)N[C@@H](Cc1ccccc1)C(=O)N[C@@]1(C)CCC/C=C\CCC[C@@](C)(C(=O)N[C@@H](Cc2ccc(O)cc2)C(=O)N[C@@H](Cc2ccc(O)cc2)C(=O)NCC(=O)N[C@@H](CCC(=O)O)C(=O)N[C@@H](CO)C(=O)NCC(=O)N[C@@H](CO)C(N)=O)NC(=O)[C@H](CC(C)C)NC(=O)[C@H]([C@@H](C)CC)NC(=O)[C@H](CCC(=O)O)NC1=O [NYAD-37] (H-ISF[S5]EIL[S5]YYGESGS-NH2; staple (Z) 4-8; N-terminus and C-terminus assumed) | 8 ± 0.36 µM | dose-dependent decrease | dose-dependent decrease | viral infectivity of particles released by treated cells (HIV-IIIB; 15 μM): very little to no viral infectivity; viral infectivity of particles released by treated cells (HIV-IIIB; 30 μM): very little to no viral infectivity
11 | CC[C@H](C)[C@H](N)C(=O)N[C@@H](CO)C(=O)N[C@@H](Cc1ccccc1)C(=O)N[C@@]1(C)CCC/C=C\CCC[C@@](C)(C(=O)N[C@@H](Cc2ccc(O)cc2)C(=O)N[C@@H](Cc2ccc(O)cc2)C(=O)NCC(=O)N[C@@H](CCCNC(=N)N)C(N)=O)NC(=O)[C@H](CC(C)C)NC(=O)[C@H](CC(C)C)NC(=O)[C@H](CCC(=O)O)NC1=O [NYAD-15] (H-ISF[S5]ELL[S5]YYGR-NH2; staple (Z) 4-8; N-terminus and C-terminus assumed) | 4.86 ± 1.55 µM | dose-dependent decrease | dose-dependent decrease | –
12 | Cc1ccc(NC(=O)NCCSCc2ccc(CN(C)C)o2)cc1Cl [CAP-1] | – | – | – | Kd (N-terminal CA (N-CA)): ~800 µM
13 | CC[C@H](C)[C@H](N)C(=O)N[C@H](C(=O)N[C@@H](Cc1ccccc1)C(=O)N[C@@]1(C)CCC/C=C\CCC[C@@](C)(C(=O)N[C@@H](Cc2ccc(O)cc2)C(=O)N[C@@H](Cc2ccc(O)cc2)C(=O)NCC(=O)N[C@@H](CCC(=O)O)C(=O)N[C@@H](CCCCN)C(N)=O)NC(=O)[C@H](CC(C)C)NC(=O)[C@H]([C@@H](C)CC)NC(=O)[C@H](CC(=O)O)NC1=O)[C@@H](C)O [NYAD-23] (H-ITF[S5]DIL[S5]YYGEK-NH2; staple (Z) 4-8; N-terminus and C-terminus assumed) | 9.1 ± 0.74 µM | dose-dependent decrease | dose-dependent decrease | –
